Reference: patent US6455550B1, “N-alkanoylphenylalanine derivatives” (Hoffmann-La Roche Inc., priority 1997, dated 2002)
Like-named read-outs stand apart in the source and are kept apart here.

What was measured:
[1] = molecular target: T1, cell-surface VLA-4 (α4β1 integrin) on Ramos cells binding to immobilized VCAM-1 (Homo sapiens, UniProt P05556+P13612); assay: Ramos (VLA-4)/VCAM-1 Cell-Based Screening Assay (cell adhesion); conditions: Calcein-AM labeled Ramos cells, VCAM-1 coated plates, 45 min at room temperature
T1 construct: Ramos cells bearing cell-surface VLA-4; endogenous in cells; host or cells: Ramos cells (VLA-4); VCAM-1 purified from CHO cell culture media
Excerpt: Calcein-AM was purchased from Molecular Probes Inc.
VLA-4 (α4β1 integrin) antagonist activity, defined as ability to compete with cell-surface VLA-4 for binding to immobilized VCAM-1, was quantitated using a Ramos-VCAM-1 cell adhesion assay. Ramos cells bearing cell-surface VLA-4, were labeled with a fluorescent dye (Calcein-AM) and allowed to bind VCAM-1 in the presence or absence of test compounds.
Initially, this entailed coating 96 well plates (Nunc Maxisorp) with recombinant human VCAM-1 (100 ng in 100 μl PBS), sealing each plate and allowing the plates to stand at 4° C for Å18 hr. The VCAM-coated plates were subsequently washed twice with 0.05% Tween-20 in PBS, and then blocked for 1hr (room temperature) with 200 μl of Blocking Buffer (1% BSA/0.02% thimerosal) to reduce non-specific binding. Following the incubation with Blocking Buffer, plates were inverted, blotted and the remaining buffer aspirated. Each plate was then washed with 300 μl PBS, inverted and the remaining PBS aspirated.
Test compounds were dissolved in 100% DMSO and then diluted 1:25 in VCAM Cell Adhesion Assay Buffer (4 mM CaCl2, 4 mM MgCl2 in 50 mM TRIS-HCl, pH 7.5) (final DMSO=4%). […] 100 μl/well of each dilution was added to the VCAM-coated plates, followed by 100 μl of Ramos cells (200,000 cells/well in 1% BSA/PBS). […] Plates were inverted to remove non-adherent cells, blotted and 300 μl/well PBS added. Plates were again inverted, blotted and the remaining buffer gently aspirated. 100 μl Lysis Buffer (0.1% SDS in 50 mM TRIS-HCl, pH 8.5) was added to each well and agitated for 2 min on a rotary shaking platform.

[2] = molecular target: T2, VLA-4 (α4β1 integrin) binding to immobilized VCAM-1 (Homo sapiens, UniProt P05556+P13612); assay: VLA-4/VCAM-1 Screening Assay (solid-phase, dual antibody ELISA); conditions: Ramos cell-derived VLA-4, recombinant human VCAM-1 coated plates, 2 hr at 37° C.
T2 construct: followed by 10 μl of Ramos cell-derived VLA-4; endogenous in cells; host or cells: Ramos cells (VLA-4 preparation derived from the cells)
Procedure, shortened: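 Recombinant human VCAM-1 is coated onto plates and Ramos cell-derived VLA-4 is added with compound (final DMSO 5%) in Tris buffer pH 7.4 with 1 mM MnCl2 and 1 mg/mL BSA, 2 hr at 37° C. Bound VLA-4 is detected by anti-β1 antibody, HRP anti-mouse IgG and K-Blue colorimetry. Results are % inhibition of total binding.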

[3] = IC50 in Ramos Cell Based Assay (nM)
[4] = read-out: IC50 in Ramos Cell Based Assay

T1 sequence (P13612 34-1032): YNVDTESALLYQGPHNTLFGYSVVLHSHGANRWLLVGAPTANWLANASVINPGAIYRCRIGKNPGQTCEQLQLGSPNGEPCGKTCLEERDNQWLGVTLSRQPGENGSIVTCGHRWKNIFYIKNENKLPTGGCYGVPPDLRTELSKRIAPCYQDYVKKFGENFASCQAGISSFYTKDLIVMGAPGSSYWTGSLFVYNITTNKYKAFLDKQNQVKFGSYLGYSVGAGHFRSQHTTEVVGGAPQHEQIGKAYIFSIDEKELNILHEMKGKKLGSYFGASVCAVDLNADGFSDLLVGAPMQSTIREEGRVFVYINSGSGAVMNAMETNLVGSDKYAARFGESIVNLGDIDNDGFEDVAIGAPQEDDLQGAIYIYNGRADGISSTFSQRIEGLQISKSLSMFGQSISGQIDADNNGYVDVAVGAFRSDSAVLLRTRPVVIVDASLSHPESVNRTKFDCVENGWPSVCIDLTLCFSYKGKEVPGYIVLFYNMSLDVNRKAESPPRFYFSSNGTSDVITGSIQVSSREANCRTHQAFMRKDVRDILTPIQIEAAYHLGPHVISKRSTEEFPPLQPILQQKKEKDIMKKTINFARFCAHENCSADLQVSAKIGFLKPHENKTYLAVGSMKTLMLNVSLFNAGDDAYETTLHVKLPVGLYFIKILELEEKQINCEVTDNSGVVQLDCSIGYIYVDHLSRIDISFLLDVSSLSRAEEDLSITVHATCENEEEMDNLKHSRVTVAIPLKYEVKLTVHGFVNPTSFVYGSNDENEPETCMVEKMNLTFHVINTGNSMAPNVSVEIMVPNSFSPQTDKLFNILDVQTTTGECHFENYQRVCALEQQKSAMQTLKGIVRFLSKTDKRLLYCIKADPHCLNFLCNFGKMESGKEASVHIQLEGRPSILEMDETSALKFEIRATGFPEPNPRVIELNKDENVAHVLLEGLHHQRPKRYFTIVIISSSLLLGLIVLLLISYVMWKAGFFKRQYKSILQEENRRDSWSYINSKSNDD
T1 sequence (P05556 21-798): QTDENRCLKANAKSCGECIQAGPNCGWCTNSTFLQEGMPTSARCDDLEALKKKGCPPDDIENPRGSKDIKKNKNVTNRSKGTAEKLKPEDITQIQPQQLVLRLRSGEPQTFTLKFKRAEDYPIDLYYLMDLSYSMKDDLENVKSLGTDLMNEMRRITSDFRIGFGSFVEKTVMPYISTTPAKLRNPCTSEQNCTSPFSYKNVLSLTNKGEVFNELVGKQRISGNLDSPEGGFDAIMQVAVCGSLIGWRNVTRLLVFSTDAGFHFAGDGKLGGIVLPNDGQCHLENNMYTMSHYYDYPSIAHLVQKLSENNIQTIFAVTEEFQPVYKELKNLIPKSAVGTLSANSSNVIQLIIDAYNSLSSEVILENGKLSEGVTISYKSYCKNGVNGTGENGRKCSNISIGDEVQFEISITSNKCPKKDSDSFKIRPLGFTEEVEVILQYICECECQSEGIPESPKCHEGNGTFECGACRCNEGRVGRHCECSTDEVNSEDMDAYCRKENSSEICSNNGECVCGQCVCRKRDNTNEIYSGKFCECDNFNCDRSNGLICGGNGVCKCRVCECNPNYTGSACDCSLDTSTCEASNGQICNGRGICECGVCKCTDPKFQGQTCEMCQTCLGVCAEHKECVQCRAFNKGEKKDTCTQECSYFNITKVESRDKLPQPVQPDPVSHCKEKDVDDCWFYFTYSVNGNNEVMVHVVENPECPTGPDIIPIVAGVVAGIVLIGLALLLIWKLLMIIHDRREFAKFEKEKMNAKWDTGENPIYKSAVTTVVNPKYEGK
T2 sequence (P13612 34-1032): as the sequence (P13612 34-1032) above
T2 sequence (P05556 21-798): as the sequence (P05556 21-798) above

Row | melting point | SMILES | IC50 [1, 3] | IC50 ([2]; read-out: IC50) | IC50 [1, 4] | IC50 ([2]; IC50 nM)
1 | 143 to 146 °C | COCCC1(C(=O)N[C@@H](Cc2ccc(N3C(=O)c4ccc(C#N)cc4C3=O)cc2)C(=O)O)CCCC1 [Example 371, 4-(5-Cyano-1,3-dioxo-2H-isoindol-2-yl)-N-[[1-(2-methoxyethyl)cyclopentyl]carbonyl]-L-phenylalanine] |  | 1.65 nM |  | 
2 | 136 to 140 °C | COc1ccc(CC2(C(=O)N[C@@H](Cc3ccc(NC(=O)c4c(Cl)cccc4Cl)cc3)C(=O)O)CCCCC2)cc1 [Example 47, 4-[[(2,6-Dichlorophenyl)carbonyl]amino]-N-[[1-(4-methoxyphenylmethyl)cyclohexyl]carbonyl]-L-phenylalanine] |  |  |  | 
3 | 172 to 175 °C | COCCC1(C(=O)N[C@@H](Cc2ccc(NC(=O)c3cc(C#N)ccc3Cl)cc2)C(=O)OC)CCCC1 [Example 362, 4-[(2-Chloro-5-cyanophenylcarbonyl)amino]-N-[[1-(2-methoxyethyl)cyclopentyl]carbonyl]-L-phenylalanine Methyl Ester] |  |  |  | 
4 | 85 to 87 °C | COCCC1(C(=O)N[C@@H](Cc2ccc(NC(=O)c3c(Cl)cccc3Cl)cc2)C(=O)OC)CCCC1 [Example 397, 4-[[(2,6-Dichlorophenyl)carbonyl]amino]-N-[[1-(2-methoxyethyl)cyclopentyl]carbonyl]-L-phenylalanine Methyl Ester] |  |  |  | 
5 | 136 to 140 °C | COCCC1(C(=O)N[C@@H](Cc2ccc(NC(=O)c3c(Cl)cccc3Cl)cc2)C(=O)O)CCCC1 [Example 398, 4-[[(2,6-Dichlorophenyl)carbonyl]amino]-N-[[1-(2-methoxyethyl)cyclopentyl]carbonyl]-L-phenylalanine] |  |  |  | 
6 |  | COC(=O)NCCC1(C(=O)N[C@@H](Cc2ccc(NC(=O)c3c(Cl)cccc3Cl)cc2)C(=O)O)CCCC1 [Example 193] |  | 0.55 nM | 40 nM | 
7 |  | O=C(Nc1ccc(C[C@H](NC(=O)C2(CCCCO)CCCC2)C(=O)O)cc1)c1c(Cl)cccc1Cl [Example 255] | 27 nM |  |  | 0.5 nM
8 |  | O=C(Nc1ccc(C[C@H](NC(=O)C2(CCNC(=O)C3CCCN3C(=O)C(F)(F)F)CCCC2)C(=O)O)cc1)c1c(Cl)cccc1Cl (stereo partly drawn) [Example 159] |  | 6.4 nM | 313 nM | 
9 |  | COc1ccc(C(=O)NCCC2(C(=O)N[C@@H](Cc3ccc(NC(=O)c4c(Cl)cccc4Cl)cc3)C(=O)O)CCCC2)cc1 [Example 257] | 635 nM |  |  | 40 nM
10 |  | O=C(NCCC1(C(=O)N[C@@H](Cc2ccc(NC(=O)c3c(Cl)cccc3Cl)cc2)C(=O)O)CCCC1)c1ccno1 [Example 158] |  | 5 nM | 124 nM | 
11 |  | C=CCCC1(C(=O)N[C@@H](Cc2ccc(NC(=O)c3c(Cl)cccc3Cl)cc2)C(=O)O)CCCC1 [Example 271] |  |  | 67 nM | 0.55 nM
12 |  | CSCCC1(C(=O)N[C@@H](Cc2ccc(NC(=O)c3c(Cl)cccc3Cl)cc2)C(=O)O)CCCC1 [Example 249] | 62 nM |  |  | 0.29 nM

Row | SMILES | melting point | IC50 [1, 3] | IC50 ([2]; read-out: IC50) | IC50 [1, 4] | IC50 ([2]; IC50 nM)
13 | C[S+]([O-])CCC1(C(=O)N[C@@H](Cc2ccc(NC(=O)c3c(Cl)cccc3Cl)cc2)C(=O)O)CCCC1 (stereo partly drawn) [Example 357] | 255 to 258 °C | 25 nM |  |  | 
14 | COCCC1(C(=O)N[C@@H](Cc2ccc(NC(=O)c3cc(C#N)ccc3Cl)cc2)C(=O)O)CCCC1 [Example 363, 4-[(2-Chloro-5-cyanophenylcarbonyl)amino]-N-[[1-(2-methoxyethyl)cyclopentyl]carbonyl]-L-phenylalanine] | 169 to 172 °C |  | 0.64 nM | 11 nM | 
15 | CS(=O)(=O)CCC1(C(=O)N[C@@H](Cc2ccc(NC(=O)c3c(Cl)cccc3Cl)cc2)C(=O)O)CCCC1 [Example 358] | 184 to 187 °C | 75 nM |  |  | 
